Holding throughout (type): cell-based
Experiment [1] concerns the target T1, Kv1.1/Kv1.1-E283K channels (Homo sapiens, UniProt Q09470, E283K).
T1 construct: expressed in transfected cells; host or cells: Xenopus laevis oocytes co-injected with 50/50 wild-type/mutant cRNA
In words: TEVC of oocytes co-injected with 50/50 wild-type/E283K Kv1.1 cRNA. As to the method:
(§1) We next tested effects on channels generated by co-injection of 50/50 wild-type/mutant Kv1.1 cRNA. Strikingly, gallic acid (1 µM) was able to hyperpolarize (by −15.5 ± 0.5 mV; n = 4; P < 0.0001) the V0.5 act of Kv1.1/Kv1.1-E283K channels, restoring voltage dependence typical of wild-type Kv1.1 (Fig. 7a–c), also inducing a −14 ± 0.7 mV hyperpolarization (n = 4; P = 0.0005) in EM of oocytes expressing Kv1.1/Kv1.1-E283K (Fig. 7d). […] Because of this hint at activity improvement in L155P channels we also applied higher concentrations (10 and 100 µM) of gallic acid, which produced a more robust (−12.5 ± 0.6 mV and −14.1 ± 0.6 mV, respectively) hyperpolarization of Kv1.1/Kv1.1-L155P V0.5 act (Fig. 8b, c) and hyperpolarized EM by −14.0 ± 0.6 mV and −15.2 ± 0.7 mV, respectively (Fig. 8d).
(§2) Wild-type and mutant Kv1 cDNAs were generated (Genscript, Piscataway, NJ) in the pTLNx expression vector. As previously described, we generated cRNA transcripts encoding human Kv1.1 (wild-type and mutant) and Kv1.2, by in vitro transcription using the mMessage mMachine kit (Thermo Fisher Scientific), after vector linearization, from cDNA sub-cloned into plasmids (pTLNx) incorporating Xenopus laevis β-globin 5’ and 3’ UTRs flanking the coding region to enhance translation and cRNA stability. We injected defolliculated stage V and VI Xenopus laevis oocytes (Xenoocyte, Dexter, MI, US) with Kv1 cRNAs (1–5 ng). We incubated the oocytes at 16 °C in ND96 oocyte storage solution containing penicillin and streptomycin, with daily washing, for 2 days prior to two-electrode voltage-clamp (TEVC) recording.
(§3) We performed TEVC at room temperature using an OC-725C amplifier (Warner Instruments, Hamden, CT) and pClamp10 software (Molecular Devices, Sunnyvale, CA) 2 days after cRNA injection as described in the section above. For recording, oocytes we placed in a small-volume oocyte bath (Warner) and viewed with a dissection microscope. We sourced chemicals from Sigma. We studied effects of plant extracts and of compounds, solubilized directly in bath solution (in mM): 96 NaCl, 4 KCl, 1 MgCl2, 1 CaCl2, 10 HEPES (pH 7.6). We introduced extracts or compounds into the oocyte recording bath by gravity perfusion at a constant flow of 1 ml per minute for 3 min prior to recording. Pipettes were of 1–2 MΩ resistance when filled with 3 M KCl. We recorded currents in response to voltage pulses between −80 mV and +40 mV at 10 or 20 mV intervals from a holding potential of −80 mV, to yield current-voltage relationships and examine activation kinetics. To calculate the voltage dependence of activation (V0.5), tail currents were recorded at a voltage pulse of −50 mV immediately following prepulse voltages between −80 mV and +40 mV. We analyzed data using Clampfit (Molecular Devices) and Graphpad Prism software (GraphPad, San Diego, CA, USA), stating values as mean ± SEM. We plotted raw or normalized tail currents vs. prepulse voltage and fitted with a single Boltzmann function:1 g=(A1−A2)/1+exp[V1/2−V/Vs]y+A2 where g is the normalized tail conductance, A1 is the initial value at -∞, A2 is the final value at +∞, V1/2 is the half-maximal voltage of activation and Vs the slope factor.

Experiment [2] addresses T2, Kv1.1/Kv1.1-L328V channels (Homo sapiens, UniProt Q09470, L328V).
T2 construct: expressed in transfected cells; host or cells: Xenopus laevis oocytes co-injected with 50/50 wild-type/mutant cRNA
Kind of experiment: TEVC of oocytes co-injected with 50/50 wild-type/L328V Kv1.1 cRNA. The following applies: for effect on channel activity: compound 1 µM. On the procedure: as §1
(§4) Wild-type and mutant Kv1 cDNAs were generated (Genscript, Piscataway, NJ) in the pTLNx expression vector. As previously described, we generated cRNA transcripts encoding human Kv1.1 (wild-type and mutant) and Kv1.2, by in vitro transcription using the mMessage mMachine kit (Thermo Fisher Scientific), after vector linearization, from cDNA sub-cloned into plasmids (pTLNx) incorporating Xenopus laevis β-globin 5’ and 3’ UTRs flanking the coding region to enhance translation and cRNA stability. […]
(§5) We performed TEVC at room temperature using an OC-725C amplifier (Warner Instruments, Hamden, CT) and pClamp10 software (Molecular Devices, Sunnyvale, CA) 2 days after cRNA injection as described in the section above. […] We recorded currents in response to voltage pulses between −80 mV and +40 mV at 10 or 20 mV intervals from a holding potential of −80 mV, to yield current-voltage relationships and examine activation kinetics. To calculate the voltage dependence of activation (V0.5), tail currents were recorded at a voltage pulse of −50 mV immediately following prepulse voltages between −80 mV and +40 mV. We analyzed data using Clampfit (Molecular Devices) and Graphpad Prism software (GraphPad, San Diego, CA, USA), stating values as mean ± SEM. […]

Experiment [3] concerns the target T3, Kv1.1/Kv1.1-G311D channels (Homo sapiens, UniProt Q09470, G311D).
T3 construct: expressed in transfected cells; host or cells: Xenopus laevis oocytes co-injected with 50/50 wild-type/mutant cRNA
Kind of experiment: TEVC of oocytes co-injected with 50/50 wild-type/G311D Kv1.1 cRNA. The following applies: for effect on channel activity: compound 1 µM. As to the method: as §1, §4, §5

For a further experiment, the target named is T4, Kv1.1-L328V channels (Homo sapiens, UniProt Q09470, L328V).
T4 construct: expressed in transfected cells; host or cells: Xenopus laevis oocytes
T4 sequence (Q09470 whole entry L328V): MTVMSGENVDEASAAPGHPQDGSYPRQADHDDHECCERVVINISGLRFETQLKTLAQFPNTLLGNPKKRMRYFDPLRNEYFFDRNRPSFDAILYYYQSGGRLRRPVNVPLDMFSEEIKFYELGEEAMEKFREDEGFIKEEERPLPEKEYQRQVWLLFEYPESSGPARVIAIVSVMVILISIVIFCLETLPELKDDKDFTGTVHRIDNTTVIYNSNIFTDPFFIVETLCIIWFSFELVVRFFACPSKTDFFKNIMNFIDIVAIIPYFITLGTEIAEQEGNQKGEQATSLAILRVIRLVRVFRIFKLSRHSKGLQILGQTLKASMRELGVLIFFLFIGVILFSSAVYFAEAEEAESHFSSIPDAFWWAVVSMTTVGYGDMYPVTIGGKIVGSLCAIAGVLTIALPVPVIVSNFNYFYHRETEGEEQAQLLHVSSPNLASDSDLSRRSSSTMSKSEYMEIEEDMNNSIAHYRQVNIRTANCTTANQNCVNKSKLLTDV
In words: TEVC of oocytes expressing 100% Kv1.1-L328V. The following applies: compound 1 µM.
Excerpt: (§6) EA1 mutant G311D is in the S4-5 linker of Kv1.1 (Fig. 5a) and produces a 65% prepulse current reduction both in Kv1.1-G311D and in Kv1.1/Kv1.1-G311D channels[43],[44]; either channel type was minimally responsive to the plant extracts tested (Supplementary Figs. 3 and 4). EA1 mutant L328V (which is associated with tetany and hypomagnesemia) is located in the intracellular end of Kv1.1 S5 (Fig. 5a) and results in complete current loss in a dominant negative manner, i.e., Kv1.1-L328V and Kv1.1/Kv1.1-L328V channels are each nonfunctional. The traditional ataxia remedy plant extracts were unable to rescue Kv1.1-L328V or Kv1.1/Kv1.1-L328V function (Supplementary Figs. 5 and 6). EA1 mutant V408A is in the intracellular-proximal end of Kv1.1 S6 (Fig. 5a) and reduces current, speeds deactivation, and increases C-type inactivation of Kv1.1[46]. Here, Native American ataxia remedy extracts had relatively minor effects on Kv1.1-V408A activity, with nettle and Pacific ninebark (roots or leaves) inducing hyperpolarizing shifts in EM, and Pacific ninebark leaves inducing a negative shift in the voltage dependence of activation, although this was not quantifiable due to the very small tail currents (Supplementary Fig. 7). Effects of the extracts on Kv1.1/Kv1.1-V408A activity were also relatively minor (Supplementary Fig. 8). […]
as §5

The next experiment has as its target T5, Kv1.1-V408A channels (Homo sapiens, UniProt Q09470, V408A).
T5 construct: expressed in transfected cells; host or cells: Xenopus laevis oocytes
Kind of experiment: TEVC of oocytes expressing 100% Kv1.1-V408A. The following applies: compound 1 µM.
Excerpt: as §6, §5

A further experiment addresses T6, wild-type human Kv1.1 (Homo sapiens, UniProt Q09470).
T6 construct: expressed in transfected cells; host or cells: Xenopus laevis oocytes injected with cRNA (pTLNx vector)
In words: Two-electrode voltage clamp of oocytes expressing wild-type Kv1.1. Particulars: for shift of midpoint voltage-dependence of activation (V0.5 act): 100 µM; for effect on Kv1.1 activity: compound 100 µM; for EM (unclamped oocyte membrane potential) / Slope / V0.5 Normalized tail current: in presence of 100 µM compound.
Excerpt: as §2, §3

Another experiment deals with T7, Kv1.1-L155P channels (Homo sapiens, UniProt Q09470, L155P).
T7 construct: expressed in transfected cells; host or cells: Xenopus laevis oocytes
T7 sequence (Q09470 whole entry L155P): as the sequence (Q09470 whole entry L328V) above, with L155P, V328L counted along it
In words: TEVC of oocytes expressing 100% Kv1.1-L155P. The following applies: compound 1 µM.

Where two headings read alike, the source gives them in different places.

T2 sequence (Q09470 whole entry, stated change not applied): as the sequence (Q09470 whole entry L328V) above, with V328L counted along it
T2 sequence (Q09470 whole entry L328V): as the sequence (Q09470 whole entry L328V) above
T3 sequence (Q09470 whole entry, stated change not applied): as the sequence (Q09470 whole entry L328V) above, with V328L counted along it
T3 sequence (Q09470 whole entry G311D): as the sequence (Q09470 whole entry L328V) above, with G311D, V328L counted along it
T6 sequence (Q09470 whole entry): as the sequence (Q09470 whole entry L328V) above, with V328L counted along it
T1 sequence (Q09470 whole entry, stated change not applied): as the sequence (Q09470 whole entry L328V) above, with V328L counted along it
T1 sequence (Q09470 whole entry E283K): as the sequence (Q09470 whole entry L328V) above, with E283K, V328L counted along it
T5 sequence (Q09470 whole entry V408A): as the sequence (Q09470 whole entry L328V) above, with V328L, V408A counted along it
Excerpt for Kv1.1-L155P channels: As previously described[24], we generated cRNA transcripts encoding human Kv1.1 (wild-type and mutant) and Kv1.2, by in vitro transcription using the mMessage mMachine kit (Thermo Fisher Scientific), after vector linearization, from cDNA sub-cloned into plasmids (pTLNx) incorporating Xenopus laevis β-globin 5’ and 3’ UTRs flanking the coding region to enhance translation and cRNA stability. We injected defolliculated stage V and VI Xenopus laevis oocytes (Xenoocyte, Dexter, MI, US) with Kv1 cRNAs (1–5 ng). […]

In the case of tannic acid, in experiment [1] (1 µM), the “hyperpolarizing shift of V0.5 act” value is −12 mV. The “effect on channel activity” value is recorded as “minimal” in experiment [2]; “minimal” in experiment [3]; “does not rescue” at Kv1.1-L328V channels; “subtle improvements in Kv1.1-V408A function but slowed its activation” at Kv1.1-V408A channels; “did not alter” on Kv1.1-L155P channels. The “shift of midpoint voltage-dependence of activation (V0.5 act)” value at wild-type human Kv1.1 was −25.6 ± 2.6 mV. The “effect on Kv1.1 activity” value on wild-type human Kv1.1 is listed as “highly efficacious Kv1.1 channel openers”. Also, at wild-type human Kv1.1 (dose response, Fig. 4, read-out: EC50 for ΔV0.5activation), the EC50 was found to be 19 ± 1.5 nM. On wild-type human Kv1.1, the “EM (unclamped oocyte membrane potential)” value is recorded as -54.40 ± 1.23 mV. In addition, the Slope at wild-type human Kv1.1 is on record as 13.67 ± 2.01 mV. Besides, the “V0.5 Normalized tail current” value at wild-type human Kv1.1 is on record as -44.95 ± 2.49 mV.

Regarding `O=C(O)c1cc(O)c(O)c(O)c1` [gallic acid], in experiment [1] (1 µM), the “hyperpolarization in EM” value is on record as −14 ± 0.7 mV. Moreover, in experiment [1] (1 µM), the “hyperpolarizing shift of V0.5 act” value was −15.5 ± 0.5 mV. Besides, the figures for the EM in experiment [1] (in presence of 1 µM compound), in experiment [2] (in presence of 1 µM compound) and in experiment [3] (in presence of 1 µM compound) were -47.80 ± 0.65 mV, -33.00 ± 1.09 mV and -47.00 ± 2.56 mV, respectively. The Slope in experiment [1] (in presence of 1 µM compound) is 5.70 ± 1.12 mV; at wild-type human Kv1.1 it was 12.10 ± 2.32 mV. In addition, the “V0.5 Normalized tail current” value in experiment [1] (in presence of 1 µM compound) is -27.50 ± 0.51 mV; on wild-type human Kv1.1, -37.17 ± 2.59 mV. Also, the “effect on channel activity” value in experiment [2] is recorded as “negligible”; in experiment [3], “negligible”; on Kv1.1-L328V channels it was “ineffective at rescuing activity”; at Kv1.1-V408A channels, “ineffective at rescuing activity”; at Kv1.1-L155P channels it was “ineffective at rescuing activity”. Besides, the “shift of midpoint voltage-dependence of activation (V0.5 act)” value on wild-type human Kv1.1 is reported as −21.0 ± 2.5 mV. Also, the EC50 turned out to be 18 ± 6 nM at wild-type human Kv1.1 (EC50 for hyperpolarization of EM, oocytes expressing wild-type Kv1.1); 379 ± 28 nM at wild-type human Kv1.1 (EC50 for peak current augmentation, at −40 mV, Fig. 10); 54 ± 10 nM on wild-type human Kv1.1 (EC50 for ΔV0.5activation, dose response, Fig. 4). Also, at wild-type human Kv1.1 (Kv1.1-expressing oocytes), the “lowest concentration that begins to hyperpolarize the resting membrane potential” value is recorded as 100 nM. Further, the “effect on Kv1.1 activity” value on wild-type human Kv1.1 is on record as “highly efficacious Kv1.1 channel openers”. In addition, on wild-type human Kv1.1 (dose response, Fig. 4a), the “maximal shift in V0.5activation” value is given as −20 mV. Also, the “EM (unclamped oocyte membrane potential)” value at wild-type human Kv1.1 is -49.60 ± 0.91 mV.

A word on the EC50: it is the concentration that produces a half-maximal response.

The values above are taken from paper PMC10244465, “Native American ataxia medicines rescue ataxia-linked mutant potassium channel activity via binding to the voltage sensing domain” (Nature Communications, 2023).
